In PubChem BioAssay (NCI):
Values joined by “and” are separate entries in the source; they are usually repeats but may differ in a detail not shown here. Identical values can stand only once.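 Each compound was tested at five concentrations against cells in 96-well plates for 48 hours. GI50 = concentration required for 50% inhibition of growth. Definition used: TGI = concentration required for complete inhibition of growth.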

How the values were obtained:
Test in all cases: inhibition of tumour cell growth, NCI panel, 48 h
HOP-92 NSCLC = tested on: HOP-92 NSCLC
CCRF-CEM leukemia = tested on: CCRF-CEM leukemia
UO-31 renal = tested on: UO-31 renal
A498 renal = tested on: A498 renal
MDA-MB-231 breast = tested on: MDA-MB-231 breast
SN12C renal = tested on: SN12C renal
PC-3 prostate = tested on: PC-3 prostate
LOX IMVI melanoma = tested on: LOX IMVI melanoma
SR leukemia = tested on: SR leukemia
SF-295 CNS = tested on: SF-295 CNS

Compound	GI50 (HOP-92 NSCLC)	TGI (HOP-92 NSCLC)	GI50 (CCRF-CEM leukemia)	TGI (CCRF-CEM leukemia)	GI50 (UO-31 renal)	TGI (UO-31 renal)	GI50 (A498 renal)	TGI (A498 renal)	GI50 (MDA-MB-231 breast)	TGI (MDA-MB-231 breast)	GI50 (SN12C renal)	TGI (SN12C renal)	GI50 (PC-3 prostate) [µM]	TGI (PC-3 prostate)	GI50 (LOX IMVI melanoma)	TGI (LOX IMVI melanoma)	GI50 (SR leukemia)	TGI (SR leukemia) [µM]	GI50 (SF-295 CNS)	TGI (SF-295 CNS)
CC1(C)[C@@H](OC(N)=O)[C@H]2O[C@H]2[C@]2(C=O)[C@H]3CC[C@]4(C)[C@@H](c5ccc(=O)oc5)[C@@H](Cl)C[C@]4(O)C3=CC[C@@H]12	0.00616 µM	0.0198 µM	0.00571 µM	0.0147 µM	0.00572 µM	0.0163 µM	0.00683 µM	0.0222 µM	0.0109 µM	0.0556 µM	0.0056 µM	0.0173 µM	0.00667	0.0188 µM	0.00451 µM	0.00886 µM	0.00617 µM	0.0185	0.00522 µM	0.0118 µM
CCn1c(-c2ccc(OC(C)=O)cc2)c(C)c2cc(OC(C)=O)ccc21		> 100 µM		53.9 µM		47.9 µM		70.4 µM		38.3 µM		79 µM		44.1 µM		30.6 µM		30.8		96.7 µM
CCc1nc(C(N)=O)c(Nc2ccc(N3CCC(N4CCN(C)CC4)CC3)c(OC)c2)nc1NC1CCOCC1	0.173 µM and 0.0827 µM and 0.247 µM	1.62 µM and 0.64 µM and 1.63 µM	3.76 µM and 0.901 µM and 7.12 µM	30.1 µM and > 10 µM and 44.4 µM	1.01 µM and 0.282 µM and 1.23 µM	8.61 µM and > 10 µM and 8.63 µM	0.96 µM and 0.165 µM and 0.931 µM	4.41 µM and 0.6 µM and 4.9 µM	3.38 µM and 0.829 µM and 3.52 µM	17.7 µM and > 10 µM and 17.2 µM	0.545 µM and 0.247 µM and 0.491 µM	20.2 µM and > 10 µM and 17.5 µM		25.7 µM and > 10 µM and 26 µM	2.12 µM and 0.337 µM and 2.82 µM	17.6 µM and > 2.34 µM and 19.4 µM	< 0.0135 µM and 0.0021 µM and 0.013 µM		3.59 µM and 1.02 µM and 4.54 µM	15.3 µM and > 3.5 µM and 17.3 µM
COc1ccc(CC2NCCc3cc(OC)c(OC)cc32)cc1Br (stereo unspecified)		61.7 µM		> 85.3 µM		> 100 µM		> 79.1 µM		57.3 µM		> 100 µM		> 100 µM		47.1 µM		74.6		86.7 µM
Clc1ccc(C=Nc2ccc3c(c2)Cc2ccccc2-3)c(Cl)c1		> 100 µM		> 100 µM		> 100 µM		> 100 µM		> 100 µM		> 100 µM		> 100 µM		> 100 µM		> 100		> 100 µM
C1CCC([PH+](C2CCCCC2)C2CCCCC2[PH+](C2CCCCC2)C2CCCCC2)CC1.O=C(C1[CH-]CCCC1)C1CCCC[N-]1.[Au] (stereo unspecified)	0.22 µM	0.89 µM			1.45 µM	2.76 µM	0.0757 µM	0.584 µM	0.223 µM	0.713 µM	0.262 µM	2.81 µM	0.218	3.8 µM			0.329 µM	> 100	0.262 µM	1.09 µM
O=C1CC2c3ccccc3CCC2c2ccccc21 (stereo unspecified)						50.8 µM		41.1 µM		80 µM				90.6 µM		34.3 µM		> 100		49.7 µM
C=C1CCC(CC[C@@H]2CC[C@]3(OC2)O[C@@]2(O)CC[C@]3(C)OC2(C)C)C(C)(C)[C@H]1C/C=C1/C(=O)OC[C@@H]1O (stereo partly specified)		6.51 µM		2.32 µM		9.33 µM		15.2 µM		3.72 µM		8.03 µM		10.7 µM		1.88 µM		> 100		10.5 µM
COc1cc(C(=O)c2cc(C)c3[nH]c4ccc(C)cc4c3c2C)cc(OC)c1OC	< 0.01 µM	5.86 µM	< 0.01 µM	> 100 µM	< 0.01 µM	> 100 µM	< 0.01 µM	< 0.01 µM	< 0.01 µM		< 0.01 µM	> 100 µM	< 0.01	> 100 µM	< 0.01 µM	> 100 µM	< 0.01 µM	> 100	< 0.01 µM	
O=C(O)C1C(Br)(c2ccccc2)C1(Br)c1ccccc1 (stereo unspecified)		> 100 µM				47.2 µM		83.8 µM		> 100 µM		> 100 µM		> 100 µM		> 100 µM		> 100		> 100 µM
COc1cc2[nH]c(C(=O)c3cc(OC)c(OC)c(OC)c3)c(N)c2cc1C#CC1CC1	0.622 µM	94.5 µM	3.38 µM	> 100 µM	2.6 µM	> 100 µM	3.23 µM	61.1 µM	3.9 µM	> 100 µM	7.69 µM	> 100 µM	2.21	> 100 µM	4.33 µM	> 100 µM	0.976 µM	> 100	1.66 µM	> 100 µM
CN(C)C(=O)[C@H](O)[C@H](Cc1ccccc1)NC(=O)c1cc2cc(Cl)ccc2[nH]1	17 µM	56.8 µM	30.2 µM	> 100 µM	14.8 µM	39.8 µM	12.1 µM	54.1 µM	19.6 µM	52.8 µM	23.5 µM	> 95.1 µM	24.4	> 89.6 µM	17 µM	38.5 µM	26.6 µM	88.7	17.3 µM	39 µM
ClCC[N+]12CC[N+](CCCl)(CC1)C2		> 100 µM		> 100 µM		> 100 µM		> 100 µM		> 100 µM		> 100 µM		> 100 µM		> 100 µM		> 100		> 100 µM
O=c1c2ccccc2c(=O)c2c1[nH]c1c(-c3ccccc3)c(-c3ccccc3)c(=O)c12	3.23 µM	12.7 µM	1.46 µM	11 µM	1.75 µM	5.55 µM	3.12 µM	7.69 µM	4.97 µM	43 µM	3.57 µM	16 µM	2.67	11.1 µM	2.55 µM	6.2 µM	2.15 µM	13.5	2.34 µM	6.24 µM
ClCc1cccc(Cn2cnc3nc(Cl)nc(Cl)c32)c1	1.46 µM	2.78 µM	0.31 µM	0.973 µM	4.43 µM	9.1 µM	1.52 µM	2.9 µM	0.234 µM	0.694 µM			0.644	2.06 µM			0.233 µM	2.6	2.02 µM	3.78 µM
O=c1cc(NC2CCN(CCCc3ccccc3)CC2)c2cc(Cl)ccc2o1	11.9 µM	27.7 µM	18.2 µM	79.3 µM	4.39 µM	17.8 µM	0.0423 µM	6.92 µM	9.42 µM	22.9 µM	13 µM	28.2 µM	12.9	26.9 µM	5.8 µM	19.2 µM	6.81 µM	28.3	15.1 µM	29.9 µM
O=c1cccc(C#CC#CC2=CCCCC2)o1		> 23 µM	0.649 µM	5.5 µM	3.99 µM	11 µM	19.8 µM	36.8 µM	1.96 µM	5.3 µM	0.516 µM	1.48 µM	6.6	11.6 µM	3.09 µM		0.0307 µM	23.4	9.04 µM	16.4 µM
COc1ccc(/C=C/C(=O)C(CC2CCC2)C(=O)/C=C/c2ccc(OC)c(OC)c2)cc1OC	2.64 µM	7.9 µM	2.05 µM	> 100 µM	1.56 µM	2.9 µM	1.82 µM	3.33 µM	3.77 µM	> 100 µM	1.93 µM	4.55 µM	2.85	> 100 µM	1.25 µM	2.52 µM	1.04 µM	> 100	2.5 µM	7.22 µM
C/C(N=NC(=S)N(C)C)=C1\C=CC=CN1O		> 100 µM		> 63.5 µM		> 97.4 µM		> 100 µM		> 100 µM		> 100 µM		> 100 µM		> 100 µM		> 100		> 100 µM
O=C(/C=C\c1ccc(NCc2ccc(C(=O)O)cc2)cc1)CCl			2.62 µM	7.03 µM	14.6 µM	29.2 µM	15 µM	28.3 µM	12.7 µM	27 µM	11.2 µM	23.7 µM	14.2	28.9 µM	2.17 µM	5.12 µM	3.33 µM	10.9	17.5 µM	34.3 µM
CCCCON(OC(=O)c1ccc2ccc3cccc4ccc1c2c34)C(C)=O	16.3 µM	44.3 µM	16.3 µM	41.4 µM	19.5 µM	42.4 µM	27.7 µM	85.8 µM	18.9 µM	40.2 µM	19.6 µM	39.2 µM	22.2	56.7 µM	16.9 µM	33.1 µM	13.2 µM	35.1	30.3 µM	> 100 µM
CC1=C[C@H]2c3c(c(O)c(O)c4oc(-c5ccccc5)cc(=O)c34)[C@H](c3cc(O)c(O)c4oc(-c5ccccc5)cc(=O)c34)[C@H]2C(C)(C)C1	1.36 µM	5.84 µM	0.67 µM	> 75 µM	0.527 µM	2 µM	0.659 µM	3.72 µM	2.71 µM	17.7 µM	1.09 µM	7.31 µM	1.44	14.8 µM	0.395 µM	1.33 µM	0.457 µM	> 75	0.312 µM	1.76 µM
Cc1ccc(-c2nc3ccc(Cl)cc3c(=O)n2N2C(=O)CSC2c2ccccc2Cl)cc1 (stereo unspecified)	6.74 µM	> 100 µM	> 100 µM	> 100 µM	3.66 µM	> 100 µM	5.91 µM	> 100 µM	4.21 µM	> 100 µM	11.8 µM	> 100 µM	83	> 100 µM	70.1 µM	> 100 µM	> 100 µM	> 100	4.73 µM	> 100 µM
O=C1Nc2ccc(F)cc2/C1=C/c1ccc[nH]1	> 14.1 µM	> 25 µM			> 16.8 µM	> 25 µM	> 25 µM	> 25 µM	7.65 µM	> 25 µM	> 25 µM	> 25 µM	> 25	> 25 µM	24.2 µM	> 25 µM	7.84 µM	> 25	> 25 µM	> 25 µM
Cc1[nH]c2ccccc2c(=O)c1CC=C(Cl)Cl	15 µM	70.3 µM	> 100 µM	> 100 µM	42.8 µM	> 100 µM	14.5 µM	86.8 µM	31 µM	> 100 µM	50.3 µM	> 100 µM	99.9	> 100 µM	> 100 µM	> 100 µM	58.1 µM	> 100	32 µM	> 100 µM
COc1cc(/C=C/c2ccc(OC)c(OC)c2)cc(OC)c1		> 100 µM		> 100 µM		83.1 µM				52 µM		96.6 µM		> 100 µM		41.8 µM		> 100		68.9 µM
CC(C)C[C@H](NC(=O)/C=C/Cn1ccc2ccccc2c1=O)B(O)O	6.49 µM	30.4 µM			9.45 µM	> 100 µM	1.7 µM	7.95 µM	2.85 µM	8.14 µM	6.32 µM	> 100 µM	17.4	> 100 µM	2.88 µM	10.7 µM	0.887 µM	21.8	2.75 µM	15.1 µM
COc1ccc(/C=C/c2cc(OC)cc(=O)o2)cc1		> 100 µM		> 100 µM		> 100 µM				> 100 µM		> 100 µM		> 100 µM		> 100 µM		> 100		> 100 µM
CN(C)CCN1C(=O)c2ccc3c4c(ccc(c24)C1=O)C(=O)N(CCN=C=S)C3=O	0.0262 µM	0.174 µM			0.0281 µM	0.157 µM	0.0529 µM	0.207 µM	0.0942 µM	0.352 µM	0.0364 µM	0.177 µM	0.0513	0.667 µM	0.0352 µM	0.127 µM	< 0.0172 µM		0.122 µM	0.513 µM
